Test results taken from paper PMC8690038, “Mechanism of the feedback-inhibition resistance in aspartate kinase of Corynebacterium pekinense: from experiment to MD simulations” (RSC Advances, 2020).
Residue numbers refer to the chain shown, from its start. In names and notes the source's numbering stands.

T1: WT (Corynebacterium glutamicum, UniProt P26512)
T1 construct: gene lysC; recombinant from pET-28a-AK, His Trap purified, about 48 kDa
T1 sequence (P26512 1-421): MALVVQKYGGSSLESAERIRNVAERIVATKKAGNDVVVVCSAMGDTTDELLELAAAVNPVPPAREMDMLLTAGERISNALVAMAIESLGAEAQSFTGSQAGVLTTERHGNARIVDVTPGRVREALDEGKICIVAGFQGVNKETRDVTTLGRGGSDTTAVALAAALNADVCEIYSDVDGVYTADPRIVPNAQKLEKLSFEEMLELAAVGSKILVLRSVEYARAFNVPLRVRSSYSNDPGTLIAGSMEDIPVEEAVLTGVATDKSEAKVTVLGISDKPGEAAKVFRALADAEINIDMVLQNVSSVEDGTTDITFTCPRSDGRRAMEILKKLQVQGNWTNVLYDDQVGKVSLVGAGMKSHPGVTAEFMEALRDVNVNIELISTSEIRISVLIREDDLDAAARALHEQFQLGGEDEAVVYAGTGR

B1: WT (Corynebacterium glutamicum ATCC 13032) (protein)
chain: T1 sequence (P26512 1-421)
notes: recombinant from pET-28a-AK, His Trap purified, about 48 kDa
B2: A380C (Corynebacterium glutamicum ATCC 13032; A362C) (protein)
chain: T1 sequence (P26512 1-421) with A362C
notes: recombinant from pET-28a-AK in E. coli BL21, His Trap purified, about 48 kDa
B3: T379N/A380C (Corynebacterium glutamicum ATCC 13032; A362C/T361N) (protein)
chain: T1 sequence (P26512 1-421) with T361N, A362C
notes: as for B2

Experiments:
CpAK mutant A380C [1] = target: T2, CpAK mutant A380C (Corynebacterium glutamicum, UniProt P26512, A362C); assay: biochemical; parameters: species or system Corynebacterium pekinense; conditions: read-out: Relative activity (%)
T2 construct: His-tag (pET-28a) (N); made in house; host or cells: E. coli BL21
T2 sequence (P26512 whole entry A362C): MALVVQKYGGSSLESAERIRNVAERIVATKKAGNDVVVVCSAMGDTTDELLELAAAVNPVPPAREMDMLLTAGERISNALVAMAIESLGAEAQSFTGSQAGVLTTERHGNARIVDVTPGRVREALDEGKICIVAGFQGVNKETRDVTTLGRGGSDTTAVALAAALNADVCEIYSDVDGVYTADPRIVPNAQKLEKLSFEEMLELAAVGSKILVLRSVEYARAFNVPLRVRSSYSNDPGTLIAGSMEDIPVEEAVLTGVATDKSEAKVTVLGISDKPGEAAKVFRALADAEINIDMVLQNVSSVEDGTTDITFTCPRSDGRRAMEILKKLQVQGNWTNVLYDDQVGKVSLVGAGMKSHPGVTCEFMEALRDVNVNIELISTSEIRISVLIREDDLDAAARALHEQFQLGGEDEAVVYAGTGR
Method: (§1) The reaction was performed through adding 20 μL purified enzyme and 20 μL substrate inhibitors (Lys, Thr, Met, Lys + Thr, Lys + Met, Thr + Met, and Lys + Thr + Met) at 0.2, 1, 5, and 10 mM. The reaction was finished by adding volume FeCl3 after 30 min and the absorbance was measured at 540 nm. Water was instead of the substrate inhibitor as blank control. The enzyme activity of blank control was defined as 100%.

CpAK mutant T379N/A380C [2] = target: T3, CpAK mutant T379N/A380C (Corynebacterium glutamicum, UniProt P26512, A362C/T361N); assay: biochemical; parameters: species or system Corynebacterium pekinense; conditions: read-out: Relative activity (%)
T3 construct: His-tag (pET-28a) (N); made in house; host or cells: E. coli BL21
T3 sequence (P26512 whole entry T361N/A362C): as the sequence (P26512 whole entry A362C) above, with T361N counted along it
Method: as §1

WT (wild-type CpAK) = assay: Microscale thermophoresis (MST), WT; type: binding, Corynebacterium pekinense; conditions: 28 °C
Method: (§2) The purified AK concentration was adjusted to 2–20 μM with labeled buffer. The solid fluorescent dye (NT-647-NHS) was appended with 100% DMSO (30 μL) and dissolved thoroughly after vortex vibration. Then the dyes were adjusted to 2–3 folds of the protein concentration with the marker buffer. Protein and the solid fluorescent dye were mingled in equal proportion for dark reaction 30 min, and then purified according to the purification kit operation. The unlabeled substrate Asp and inhibitor Lys were diluted in the enzymatic activity measurement system, and the final concentration ranged from […], respectively, which they were incubated with the labeled protein (40 nM) at room temperature for 10 min. Then the samples were loaded into the Standard Capillaries from Nano Temper Technologies. Thermophoresis was measured 30 min after incubation at 28 °C on Monolith NT.115.[22] The dissociation constant (Kd) values were fitted by means of the MO. Affinity analysis software.

CpAK mutant A380C [3] = target: T2, CpAK mutant A380C; assay: Microscale thermophoresis (MST), A380C; type: binding, Corynebacterium pekinense
Method: as §2

CpAK mutant T379N/A380C [4] = target: T3, CpAK mutant T379N/A380C; assay: Microscale thermophoresis (MST), T379N/A380C; type: binding, Corynebacterium pekinense
Method: as §2

WT [5] = target: T1, WT; assay: Microscale thermophoresis of NT-647-NHS-labelled AK (40 nM) with diluted Lys in the enzyme activity measurement system, 28 °C, Monolith NT.115.; type: binding; conditions: read-out: K d (mM) Lys
Method: as §2

WT [6] = target: T1, WT; assay: Microscale thermophoresis of NT-647-NHS-labelled AK (40 nM) with diluted Asp in the enzyme activity measurement system, 28 °C, Monolith NT.115, no Lys added.; type: binding; conditions: read-out: K d (mM) Asp
Method: as §2

[7] = substrate: N[C@@H](CC(=O)O)C(=O)O; assay: Colorimetric end-point assay (FeCl3, 540 nm) with 0.5-16 mM L-Asp, 10.4 mM ATP, 1.6 mM MgSO4, 800 mM KCl, 800 mM NH4OH, 100 mM Tris-HCl pH 8.0, 28 °C, 30 min; fitted with the Hill equation.; type: biochemical
Method: The reaction system (1 mL) contained at the final concentration: 1.6 mM MgSO4, 800 mM KCl, 0.5–16 mM L-Asp, 10.4 mM ATP (dissoluted by 25 mM Tris–HCl), 100 mM Tris–HCl buffer solution (pH 8.0), 10 mM β-mercaptoethanol, and 800 mM NH4OH. The water was instead of L-Asp as blank control. The reaction was generated by adding 50 μL purified enzyme at 28 °C for 30 min, and stopped by adding FeCl3 solution (three parallel, below the same) and the absorbance were determined at 540 nm. The nonlinear curve was fitted by the Hill equation (V = Vmax (S^n)/(K^n + S^n)) using Origin 8.5 software. In the equation, the n value represents the Hill coefficient; the K value is equal to the substrate concentration at half the maximum rate of enzymatic reaction; Vmax and V indicate the maximum velocity and reaction rate, respectively; S means the substrate concentration.

Row | Molecule | activity at 200 µM (CpAK mutant A380C [1]) [%] | activity at 1000 µM (CpAK mutant A380C [1]) [%] | activity at 5000 µM (CpAK mutant A380C [1]) [%] | activity at 10000 µM (CpAK mutant A380C [1]) [%] | activity at 200 µM (CpAK mutant T379N/A380C [2]) [%] | activity at 1000 µM (CpAK mutant T379N/A380C [2]) [%] | activity at 5000 µM (CpAK mutant T379N/A380C [2]) [%] | activity at 10000 µM (CpAK mutant T379N/A380C [2]) [%] | Km [7] [mM] | other results
1 | NCCCC[C@H](N)C(=O)O [Lys, lysine] | 94.8 ± 0.97 | 95.7 ± 1.43 | 99.7 ± 0.54 | 104 ± 1.32 | 96.99 ± 0.56 | 98.8 ± 4.95 | 106.9 ± 0.56 | 116 ± 1.81 | – | Kd (WT (wild-type CpAK)): 1.32 mM; Kd (CpAK mutant A380C [3]): 5.32 ± 0.01 mM; Kd (CpAK mutant T379N/A380C [4]): 9.24 mM; Kd (WT [5]): 1.32 mM
2 | N[C@@H](CC(=O)O)C(=O)O [Asp, L-aspartic acid (L-Asp)] | – | – | – | – | – | – | – | – | – | Kd (WT [6]): 655.1 ± 0.9 mM
3 | C[C@@H](O)[C@H](N)C(=O)O [Thr, threonine] | 78.3 ± 1.19 | 80.9 ± 3.06 | 82.1 ± 3.56 | 87.8 ± 3.53 | 94.6 ± 3.26 | 97.06 ± 0.68 | 97.8 ± 1.95 | 98.12 ± 0.44 | – | –
4 | CSCC[C@H](N)C(=O)O [Met, methionine] | 95.1 ± 1.69 | 97.71 ± 0.85 | 98.3 ± 2.6 | 98.1 ± 1.89 | 90.47 ± 0.12 | 96.33 ± 0.56 | 98.12 ± 0.44 | 99.47 ± 0.53 | – | –
5 | B1 | – | – | – | – | – | – | – | – | 4.17 | –
6 | B2 | – | – | – | – | – | – | – | – | 3.57 | –
7 | B3 | – | – | – | – | – | – | – | – | 2.89 | –
